Test results reported in article PMC9618103, “Exploratory toxicology studies of 2,3-substituted imidazo[1,2-a]pyridines with antiparasitic and anti-inflammatory properties” (Toxicology Research, 2022).

What was measured:
[1] = system: Wistar rats; experiment: Hepatic and renal reactive oxygen species (DCF formation); format: in vivo; conditions: rats, p.o., 14 days at 10% of LD50 (CCl4, APAP: once daily, 3 days), mean ± SEM, n = 6; for Renal ROS: kidney; for Hepatic ROS: liver
Method: (§1) For toxicity tests, acclimatized rats were randomly allocated to 12 groups (n = 12 for the control and n = 6 for the rest groups). […] Meanwhile, the aforementioned vehicles (dose volume 2 mL/kg b.w.) were administered to 3 groups. […] Upon completion of the 14-day treatments and before sample collection, the bladders of animals were emptied by gentle pressure on the lower part of the abdomen to induce urination. The animals were then housed in individual metabolic cages to collect urine for a period of 6 h and then the volume was recorded. Afterward, blood samples were obtained and the serum was separated by centrifugation at 1,620 × g for 10 min at room temperature.
Reactive oxygen species (ROS) were measured by formation of 2′,7′-dichlorofluorescein (DCF). An aliquot of 10 μL (kidney) or 5 μL (liver) of the homogenates was added to 1,940 or 1,945 μL of TRIS:HEPES (18:1) and was incubated in the presence of 50 μL of 2′,7′-dichlorofluorescein diacetate for 1 h at 37 °C. In order to quench the reaction, the mixture was chilled using an ice bath. The fluorescence was measured using a Shimadzu fluorometer (Japan; λex = 488 nm; λem = 525 nm). The results were expressed as nM DCF formed per mg protein/h.[33]
(§2) The protein concentration in homogenates was measured by the Bradford method.[29]

[2] = system: Wistar rats; experiment: Subacute toxicity: water and electrolyte balance (osmolality, sodium, potassium, urinary flow); format: in vivo; conditions: for Filtered Load of Potassium / Filtered Load of Sodium / Fractional Excretion of Potassium / Fractional Excretion of Sodium / Serum Osmolality / Serum Potassium / Serum Sodium / U/S Osm ratio / Urinary Flow Rate / Urinary Potassium Excretion / Urinary Sodium Excretion: rats, p.o., 14 days at 10% of LD50 (CCl4, APAP: once daily, 3 days), mean ± SEM, n = 6
Method: (§3) For toxicity tests, acclimatized rats were randomly allocated to 12 groups (n = 12 for the control and n = 6 for the rest groups). […] Meanwhile, the aforementioned vehicles (dose volume 2 mL/kg b.w.) were administered to 3 groups. […] The animals were then housed in individual metabolic cages to collect urine for a period of 6 h and then the volume was recorded. Afterward, blood samples were obtained and the serum was separated by centrifugation at 1,620 × g for 10 min at room temperature.
Osmolality of serum and urine were assessed (in triplicate) by using a vapor pressure osmometer (Wescor 5500, Logan, United States). U/S ratio as well as osmolar (COsm) and free water clearances were calculated via conventional equations:where UOsm and SOsm are the osmolality values (mOsm/Kg) in urine and serum, respectively, and φ is the UFR (mL/min).
(§4) The levels of sodium and potassium were measured in urine and serum using a flame photometer (Corning 400, Medfield, United States). Calculation was made of the clearance, fractional excretion, and filtered load of sodium (FLS), filtered load of potassium (FLP), and filtered load of glucose (FLG) using the conventional equations:where CX is the clearance rate of X (mL/min), CCr is the creatinine clearance rate (mL/min), UX and SX are the […] concentrations of X, respectively, φ is the UFR (mL/min), FEX is the fractional excretion (%) of X, and FLX is the filtered load of X in μEq/min (Na^+ or K^+) or mg/min (glucose).

[3] = system: Wistar rats; experiment: Subacute toxicity: serum alanine aminotransferase and alkaline phosphatase activity; format: in vivo; conditions: serum; rats, p.o., 14 days at 10% of LD50 (CCl4, APAP: once daily, 3 days); mean ± SEM, n = 6
Method: as §1
The activities of serum alanine aminotransferase (ALT) and alkaline phosphatase (ALP) were measured with standard kits (RANDOX, Laboratories Ltd, UK).

[4] = system: Wistar rats; experiment: Hepatic and renal lipid peroxidation (lipid-soluble fluorescence); format: in vivo; conditions: rats, p.o., 14 days at 10% of LD50 (CCl4, APAP: once daily, 3 days), mean ± SEM, n = 6; for Renal Lipoperoxidation: kidney; for Hepatic Lipoperoxidation: liver
Method: as §1
Lipid peroxidation (LPO) was evaluated by the formation of lipid-soluble fluorescence, as previously described. Briefly, kidney and liver tissues were homogenized in 3 and 5 mL of phosphate buffer (0.2 M, pH = 7.4), respectively. A volume of 1 mL (kidney) or 0.8 mL (liver) of the homogenates was added to 7 mL of chloroform-methanol (2:1, v/v), and after 15 s of vortex mixing, the resulting mixture was cooled using an ice bath for 30 min to allow for phase separation. The fluorescence of the organic phase was measured using a Shimadzu fluorometer (Japan; λex = 370 nm; λem = 430 nm), whose sensitivity was adjusted to 140 fluorescence units by using 1 μg/mL of quinine sulfate in 50 mM H2SO4. The results were expressed as relative fluorescence units per milligram of protein.[33]
as §2

[5] = system: NIH mice; experiment: Acute oral toxicity, median lethal dose (LD50); format: in vivo; conditions: for Category (GHS acute oral toxicity hazard category) / Hazard statement (GHS): based on oral LD50, according to GHS [39]; for Oral LD50: female NIH mice, single oral dose, 14 days observation
Method: All treatments were administrated orally (p.o.) according to the scheme mentioned below.
Acute toxicity tests were performed in order to measure the median lethal dose (LD50). After acclimatization, mice were randomly allocated to ten groups (n = 4), including the control group (e.g. water, Tween 80, or PO) and the experimental groups, each with a single dose of one of the IMPYs at 4 levels of dose (0.5, 1.0, 2.0, and 4.0 g/kg b.w.).
Animals were food deprived overnight prior to administration of the chemical compounds or vehicles, and food was returned 4 h after dosing. Animals had access to water ad libitum throughout the study.[27]^,[28]

[6] = system: Wistar rats; experiment: Subacute toxicity: glomerular filtration rate (creatinine clearance) and serum creatinine; format: in vivo; conditions: for Glomerular Filtration Rate / Serum Creatinine: rats, p.o., 14 days at 10% of LD50 (CCl4, APAP: once daily, 3 days), mean ± SEM, n = 6
Method: as §3
(§5) Serum and urinary creatinine were determined by the Jaffe method. With this value, evaluation was made of the fractional excretion of sodium (FES), fractional excretion of potassium (FEP), and fractional excretion of glucose.[30]^,[31] The GFR was calculated from clearance of endogenous creatinine using the conventional equation:where GFR (CCr) is the creatinine clearance rate (mL/min); UCr and SCr are the creatinine concentrations (mg/dL) in urine and serum, respectively; and φ is the urinary flow rate (UFR) (mL/min). To avoid the error from the tubular secretion of creatinine found in males, only female animals were used.

[7] = system: Wistar rats; experiment: Subacute toxicity: serum and urine glucose, urinary protein excretion; format: in vivo; conditions: for Filtered Load of Glucose / Fractional Excretion of Glucose / Serum Glucose / Urinary Glucose Excretion / Urinary Protein Excretion: rats, p.o., 14 days at 10% of LD50 (CCl4, APAP: once daily, 3 days), mean ± SEM, n = 6
Method: as §3
Serum and urine glucose concentration were calculated using GOD-PAP kits (RANDOX, Laboratories Ltd, UK). Urinary protein was quantified using the Bradford method.[29]
as §5, §4

[8] = system: renal secretory pathway of organic anions; experiment: Active tubular secretion of organic acids (PAH uptake in kidney cortex slices); format: in vivo, rats; conditions: for PAH t/m ratio: kidney cortex slices, PAH 1 mM, 1 h, 25 °C, rats, p.o., 14 days at 10% of LD50 (CCl4, APAP: once daily, 3 days), mean ± SEM, n = 6
Method: as §1
p-Aminohippuric acid (PAH) was used as an indicator of the renal secretory pathway of organic anions. Kidneys were extracted and immediately submerged in Ringer solution (pH = 7.4 and mOsm = 290 ± 10 mOsm/kg) under constant bubbling with O2/CO2 (95/5%). The kidneys were decapsulated and slices of the kidney cortex were obtained, which were then incubated in Ringer solution containing PAH (1 mM) for 1 h at 25 °C under constant bubbling with O2/CO2 (95/5%). The levels of PAH were quantified with the Bratton-Marshall method and results were expressed as the PAH tissue/medium ratio (PAH t/m ratio).[31]^,[32]

Row | Compound | Renal ROS [1] | Hepatic ROS [1] | Filtered Load of Potassium [2] | Filtered Load of Sodium [2] | Fractional Excretion of Potassium [2] | Fractional Excretion of Sodium [2] | Serum Osmolality [2] | Serum Potassium [2] | Serum Sodium [2] | U/S Osm ratio [2] | Urinary Flow Rate [2] | Urinary Potassium Excretion [2] | Urinary Sodium Excretion [2] | Alanine Aminotransferase [3] | Alkaline Phosphatase [3] | Renal Lipoperoxidation [4] | Hepatic Lipoperoxidation [4] | Category (GHS acute oral toxicity hazard category) [5] | Hazard statement (GHS) [5] | Oral LD50 [5] | also measured
1 | O=C(O)c1cn2ccccc2n1 [Compound 3a, imidazo[1,2-a]pyridine-2-carboxylic acid] | 159.65 ± 14.96 nM de DCF/mg protein/h | 349.63 ± 18.87 nM de DCF/mg protein/h | 1.98 ± 0.44 µEq/min | 40.07 ± 7.62 µEq/min | 27.89 ± 6.73% | 0.53 ± 0.16% | 304.73 ± 1.82 mOsm/kg | 6.83 ± 0.54 mEq/L | 148.12 ± 3.02 mEq/L | 3.18 ± 0.61 | 2.20 ± 0.50 µL/min | 0.50 ± 0.12 µEq/min | 0.17 ± 0.05 µEq/min | 25.62 ± 1.27 U/L | 93.76 ± 13.08 U/L | 0.29 ± 0.03 URF/mg protein | 0.79 ± 0.03 URF/mg protein | 5 | May be harmful if swallowed | > 2.000 g/kg b.w. | osmolar clearance, change in words ([2]; compared to the control group): lower; freewater clearance, change in words ([2]; compared to the control group, significant by PLS VIP and ANOVA): greater; FLS (filtered load of sodium), change in words ([2]; in comparison with the control group): decreased; GFR, change in words ([6]; in comparison to the control group): lower; Glomerular Filtration Rate [6]: 0.28 ± 0.04 mL/min; Serum Creatinine [6]: 1.05 ± 0.05 mg/dL; FEG (fractional excretion of glucose), change in words ([7]; compared to control values): increased; FLG (filtered load of glucose), change in words ([7]; compared to control values): reduced; Filtered Load of Glucose [7]: 0.22 ± 0.03 mg/min; Fractional Excretion of Glucose [7]: 0.05 ± 0.01%; Serum Glucose [7]: 80.56 ± 2.31 mg/dL; Urinary Glucose Excretion [7]: 92.91 ± 12.35 ng/min; Urinary Protein Excretion [7]: 0.69 ± 0.14 µg/min; PAH t/m ratio [8]: 2.25 ± 0.10
2 | O=C(O)c1nc2ccccn2c1[N+](=O)[O-] [Compound 3b, 3-nitroimidazo[1,2-a]pyridine-2-carboxylic acid] | 184.33 ± 42.31 nM de DCF/mg protein/h | 290.96 ± 40.60 nM de DCF/mg protein/h | 4.15 ± 0.53 µEq/min | 90.75 ± 12.03 µEq/min | 11.63 ± 2.44% | 0.38 ± 0.05% | 293.74 ± 2.06 mOsm/kg | 6.69 ± 0.40 mEq/L | 144.61 ± 3.41 mEq/L | 3.21 ± 0.39 | 3.75 ± 0.75 µL/min | 0.43 ± 0.07 µEq/min | 0.34 ± 0.06 µEq/min | 32.76 ± 5.37 U/L | 56.63 ± 6.67 U/L | 0.44 ± 0.09 URF/mg protein | 0.80 ± 0.03 URF/mg protein | 5 | May be harmful if swallowed | > 2.000 g/kg b.w. | Glomerular Filtration Rate [6]: 0.63 ± 0.08 mL/min; Serum Creatinine [6]: 0.57 ± 0.12 mg/dL; Filtered Load of Glucose [7]: 0.74 ± 0.09 mg/min; Fractional Excretion of Glucose [7]: 0.04 ± 3.7E-3%; Serum Glucose [7]: 121.37 ± 8.03 mg/dL; Urinary Glucose Excretion [7]: 262.45 ± 19.41 ng/min; Urinary Protein Excretion [7]: 1.18 ± 0.23 µg/min; PAH t/m ratio [8]: 1.92 ± 0.23; PAH t/m ratio, change in words ([8]; versus control (2a also versus Tween 80 and 2b)): decreased
